This is an account of results in the METLIN SMRT retention time set (Domingo-Almenara et al. 2019).

This series is described as follows: gradient 5% acetonitrile 3 min, to 50% in 2 min, to 85% in 15 min, held 3 min, 100 µL/min. Particulars: column: Zorbax Extend-C18 2.1 x 50 mm; eluents: water / acetonitrile, 0.1% formic acid. The gist of the method: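 In both positive and negative ionization mode, a quadrupole time-of-flight mass spectrometer coupled to HPLC analyzed pure standards run in mixtures of ~100 molecules. The Zorbax Extend-C18 column (2.1 × 50 mm, 1.8 μm) was operated at 100 μL/min with water and acetonitrile, each containing 0.1% formic acid. The dead volume was 40 μL and the dwell volume 900 μL. Retention time came from adduct peaks that were computationally picked and individually inspected by hand.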
In turn, `Cc1cc(N2CCN(C(=O)c3cccc(N(C)C)c3)CC2)nc2nnc(C)n12` returned an RP-LC retention time of 557 s.

For `COc1ccccc1N1CCN(c2ncc(S(=O)(=O)c3ccc(C)cc3)c(N)n2)CC1`, the RP-LC retention time is 955 s.

The compound `CCOC(=O)CNC(=O)NCCc1nc2cccnc2n1-c1ccccc1` registered an RP-LC retention time of 608 s.

In turn, `Cc1ccc(C)c(S(=O)(=O)N2[C@H]3CC[C@@H]2c2cnc(-c4ccc(F)cc4)nc2C3)c1` returned an RP-LC retention time of 1270 s.

For the compound `CN(c1nccn2c(=O)n(CC(=O)Nc3ccccc3F)nc12)C1CCCCC1`, the RP-LC retention time is 748 s.

Regarding `CCCN1C(=O)COc2ccc(-c3csc(NC(=O)c4cccc(Cl)c4)n3)cc21`, the RP-LC retention time came to 1150 s.

Compound `CC(C)NC(=O)C1CC(=O)N(c2ccc3c(c2)CCN3C(=O)C2CC2)C1` (configuration not stated) displayed an RP-LC retention time of 657 s.

In turn, `COc1ccccc1N1CCN(C(=S)Nc2ccc3nc(N4CCN(C)CC4)cc(C)c3c2)CC1` gave an RP-LC retention time of 586 s.

In the case of `Cc1sc(NC(=O)C(C)C)nc1-c1ccc2c(c1)NC(=O)C(C)O2` (configuration not stated), the RP-LC retention time is 831 s.

The compound `Cc1ccc(Cl)cc1N(C)S(=O)(=O)c1cc2n(c1)CCCN(C)C2=O` gave an RP-LC retention time of 794 s.

Consider `Cc1ccnc(Nc2nc(CC(=O)NCCc3cccs3)cs2)c1`, for which the RP-LC retention time was 581 s.

On to `COc1ccccc1N1CCN(CC2CN3C(=O)N(C)c4ccccc4C3=N2)CC1` (configuration not stated), for which the RP-LC retention time was determined as 662 s.

`CCCNc1cc(N2CCCC(CCC(=O)NCc3ccc(F)cc3)C2)ncn1` (configuration not stated) gave an RP-LC retention time of 683 s.

On to `CCc1nnc(-c2cccn2CC(=O)Nc2cc(OC)cc(OC)c2)o1`, for which the RP-LC retention time amounted to 787 s.

In the case of `Cc1cc(C)cc(NC(=O)N2CCC(OC3CCN(S(C)(=O)=O)CC3)CC2)c1`, the RP-LC retention time turned out to be 718 s.

`CCOc1ccc(N2C=C(C#N)S(=O)(=O)c3ccc(Cl)cc32)cc1` came in with an RP-LC retention time of 1040 s.

In turn, `COC(=O)N1CCN(CCNC(=O)NC2CCCCC2)CC1` displayed an RP-LC retention time of 503 s.

`O=C(c1csc(N2CCN(c3ccccc3)CC2)n1)N1CCN(c2ccccn2)CC1` had an RP-LC retention time of 685 s.

Take `CCCNC(=O)C1CCCN(c2ccc(SCC(=O)Nc3c(C)cccc3C)nn2)C1` (configuration not stated): the RP-LC retention time worked out at 651 s.

`Cc1ccc(CNc2nnc(N3CCOCC3)c3ccccc23)cc1`: the RP-LC retention time was 678 s.

For the compound `O=C(NCc1cccc(Br)c1)C1CCCN(c2cnc3nccnc3c2)C1` (configuration not stated), the RP-LC retention time was found to be 739 s.

Compound `Cc1ccc(NC(=O)C2CCCN(c3ncnc4c3nc3n4CCCCC3)C2)c(Cl)c1` (configuration not stated) registered an RP-LC retention time of 855 s.

In the case of `COc1cccc(-c2cc(N3CCN(C(=O)Nc4cc(OC)ccc4OC)CC3)ncn2)c1`, the RP-LC retention time amounted to 688 s.

In the case of `CC12COC3(C(=O)Nc4ccc(F)cc4)CC1CCC32C` (configuration not stated), the RP-LC retention time was determined as 1030 s.

In turn, `Cc1ccc(NC(=O)CN2C(=O)COc3ccc(C(=O)N(C)C)cc32)nc1` displayed an RP-LC retention time of 612 s.

Compound `O=C(c1cc(-c2ccncc2)n[nH]1)N1CCCC(C(=O)N2CC=C(c3ccccc3)CC2)C1` (configuration not stated) displayed an RP-LC retention time of 648 s.

With `CN1CCN(CCCNC(=O)c2cc(-c3cccnc3)nc3ccc(Br)cc23)CC1`, the RP-LC retention time worked out at 542 s.

Compound `Cc1ccc(N2CC(c3noc(-c4ccc(F)cc4)n3)CC2=O)cc1` (configuration not stated) had an RP-LC retention time of 1010 s.

For `CCOC(=O)C1CCCN(c2ccc(-n3nc(C)cc3C)nn2)C1` (configuration not stated), the RP-LC retention time stood at 680 s.

As to `COc1ccccc1CNC(=O)CCc1nnc2c3cc(-c4ccccc4)nn3ccn12`, the RP-LC retention time was 750 s.

Turning to `COc1ccc(OC)c(CCNC(=O)c2c(N3CCCC3=O)c3cc(OC)ccc3n2C)c1`, the RP-LC retention time was 867 s.

`CCOc1ccc(NC(=O)c2cc3oc(C)cc3n2Cc2ccc(C)cc2)cc1` returned an RP-LC retention time of 1210 s.
